Where “and” joins values, the source holds several entries; their conditions need not be identical. Equal entries are not always repeated.
Columns and labels:
[1] = tested on: mast cell degranulation; assay: Serotonin release assay (inhibition of mast cell degranulation); format: cell-based; design: INCORP / TOTAL: unit not given here; settings: 50 μM; for RELEASE-SPONT: average corrected for spontaneous release; for AVERAGE % RELEASE: average of duplicates; for % RELEASE / INCORP / RELEASE / RELEASE X2 / TOTAL: duplicate wells; for inhibition at 50 µM: Mast cell
Source text: A serotonin release assay is utilized to study the utility of the inventive compounds for treatment of asthma and allergy. […] This assay measures mast cell degranulation, which is an early phase reaction to allergen challenge. Mast cells grown in tissue culture are first loaded with ^3 H serotonin, which is incorporated into the granules in the cells. The mast cells are sensitized with antigen specific monoclonal IgE, and then triggered to degranulate with the specific antigen (dinitorphenolbound to BSA (DNP)). When the cells degranulate, ^3 H Serotonin is released into the medium, and can be measured directly. The ability of the inventive compounds to inhibit the degranulation response is determined by the decrease in ^3 H Serotonin released in the presence of drug and is represented as % INHIBITION.
Specifically, the serotonin release assay seeds 2×10^5 cells in 0.5 ml medium in duplicate for spontaneous release, IgE+DNP, IgE+DNP+EtOH (vehicle control), and inventive compounds. […] The cells are incubated for 18 hours at 37° C. in 5% CO2, washed twice with 0.5 ml Isotonic Buffer (25 mM disodium PIPES pH 7.1,100 mM NaCl, 5 mM KCl, 5 mM glucose, 0.4 mM MgCl2, 1mM CaCl2, 0.1% BSA), and sterile filtered. 250 μl Isotonic Buffer is added per well and the plates are equilibrated in an incubator for about 10 min. Drug is added and cells are activated with 40 ng/ml DNP-BSA (1 mg/ml Diluted 1:200 in Isotonic Buffer) for 45 minutes using 2 μl/250 μl. Spontaneous release is determined in incubated cells with 250 μl Isotonic Buffer for 45 minutes and the reaction is stopped by removing supernatant and centrifuging at ~4000 rpm in microfuge for 15 seconds to remove any detached cells. Released radiolableled serotonin is counted. To determine amount of ^3 H-serotonin incorporated into the cells, (a) remove Isotonic Buffer and lyse cells by adding 250 μl 1% Triton-X100 in PBS, (b) add to 5 ml scintillation fluid, (c) wash 2× with Triton/PBS, and (d) add washes to scintillation tube. Percent serotonin release is calculated by dividing the amount of released serotonin by the sum of incorporated plus released serotonin and correcting for spontaneous released serotonin. Compound inhibition is calculated by dividing the percent serotonin release in the presence of a compound by the percent serotonin release in the absence of the compound.
This assay is described above and provides an in vitro model for an allergy and asthma therapeutic product.

[2] = tested on: PBMC (peripheral blood mononuclear cells); assay: Two-way mixed lymphocyte reaction (MLR), proliferation of PBMC to allogeneic stimulation; format: cell-based, human; settings: FIGS. 3 and 4
Source text: Various in vitro assays can be used to measure effects of the inventive compounds to module immune activity and have antitumor activity using a variety of cellular types. For example, a mixed lymphocyte reaction (MLR) provides a valuable screening tool to determine biological activity of each inventive compound. In the MLR, PBMCs (peripheral blood mononuclear cells) are obtained by drawing whole blood from healthy volunteers in a heparinized container and diluted with an equal volume of hanks balanced salt solution (HBSS). This mixture is layered on a […] density gradient, such as a Ficoll-Hypaque® gradient (specific gravity 1.08), and centrifuged at 1000×g for 25 minutes at room temperature or cooler. PBMC are obtained from a band at a plasma-Ficoll interface, separated and washed at least twice in a saline solution, such as HBSS. Contaminating red cells are lysed, such as by ACK lysis for 10 min at 37° C., and the PBMCs are washed twice in HBSS. The pellet of purified PBMCs is resuspended in complete medium, such as RPMI 1640 plus 20% human inactivated serum. Proliferative response of PBMC to allogeneic stimulation is determined in a two-way MLR performed in a 96-well microliter plate. Briefly, approximately 10^5 test purified PBMC cells in […] complete medium are co-cultured with approximately 10^5 autologous (control culture) or allogeneic (stimulated culture) PBMC cells, wherein the allogeneic cells are from HLA disparate individuals. Varying doses of compounds (drug) are added at the time of addition of cells to the microtiter plate. The cultures are incubated for 6 days at 37° C. in a 5% CO2 atmosphere. At the conclusion of the incubation tritiated thymidine is added (for example, […] of 40 to 60 Ci/mmole) and proliferation determined by liquid scintillation counting.
This example illustrates a mixed lymphocyte reaction assay of inventive compounds by showing the IC50 value of each compound in this assay and a dose response of several compounds to illustrate an IC50 determination.

[3] = tested on: human stromal cells; assay: PDGF-stimulated proliferation of human stromal cells; format: cell-based; settings: 50 ng/ml PDGF-BB; drug one hour prior; FIGS. 15 and 16; read-out: IC50, stromal cell proliferation
Experimental: (§1) This assay is an in vitro model for restenosis and treatment of atherosclerosis and coronary artery disease. Stromal cells were starved in serum-free media for one day and then stimulated with 50 ng/ml PDGF-BB. The drugs were added at the indicated concentrations one hour prior to PDGF stimulation. Tritiated thymidine was added for one day at the time of PDGF stimulation and the cells were harvested and counted by liquid scintillation counting 24 hrs later.
Another assay for measuring activity of the inventive compounds involves determining PDGF (platelet derived growth factor) proliferative response using human-derived stromal cells. […] Two to three days later, the stromal cells are starved in serum-free media. Twenty four hours later, the cells are treated with a stimulating agent, such as PDGF-AA, PDGF-BB or basic FGF (fibroblast growth factor) with or without IL-1α or TNF, and tritiated thymidine. Cell proliferation is determined by liquid scintillation counting.
as §1

[4] = tested on: Saccharomyces cervisiae; assay: Yeast growth inhibition assay; format: cell-based; settings: FIG. 14
Experimental: Some of the inventive compounds are effective for inhibiting yeast cell growth. This effect can be assayed by measuring growth of the yeast strain Saccharomyces cervisiae. A control yeast stain Saccharomyces cervisiae (BIO 101, Inc.) is grown overnight in YEPD broth at 30° C. A one to hundred dilution of the yeast culture is made with fresh YEPD broth. 100 μl Aliquots of the diluted culture are distributed into 96-wells titer plates. 100 μl Aliquots of drug is diluted in YEPD broth were then added to the wells. The titer plates are incubated at room temperature with continuous shaking. The cell density of the individual cultures are determined using a microplate reader with a A630 filter. The A630 of the individual yeast cultures are compared to control samples without adding drug. This assay is predictive of direct antimicrobial, particularly yeast and fungal, activity of the drugs studied.
This example illustrates the effects of CT2501R (a reference compound), CT2536R, CT2536S, CT1596R, and CT1596S of yeast growth (Saccromyces cerevasie) in the presence or absence of drug. These assays measure anti-yeast and anti-fungal activity of the drugs tested. […] Therefore either the R enantiomer, the S enantiomer or a racemic mixture of CT2536 are potential topical or systemic antimicrobial drugs.

[5] = tested on: CMV promoter activity in transformed (adenovirus) cells; assay: CMV promoter assay (gene transcription and translation; cytotoxicity in transformed cells); format: cell-based
Source text: (§2) FIG. 18 illustrates data regarding proliferative activity of various inventive compounds for inducting CMV promoter activity. The CMV promoter assay measures gene transcription and translation activity wherein any active compounds will have cytotoxic activity to inhibit cellular protein synthesis machinery in transformed (adenovirus) cells.
as §2, with “This example” for “FIG. 18”

[6] = tested on: murine thymocyte; assay: Murine thymocyte stimulated by ConA and IL-2 (T cell immune suppression); format: cell-based; settings: FIGS. 8 and 9
Experimental: A thymocyte costimulator assay is conducted to evaluate the inventive compounds to inhibit activation and proliferation of thymocytes caused by stimulation with Con A and interleukin-1 (IL-1), or […]. Thymuses are obtained from mice (e.g., female Balb/C mice) and the thymuses are removed and dissociated into culture media (e.g., RPMI 1640 without serum supplementation). The dissociated thymus tissue and cell suspension is transferred to centrifuge tubes and allowed to settle, washed with HBSS and resuspended in serum-supplemented culture media (e.g., RPMI 1640 with 10% fetal calf serum). Any contaminating red cells are lysed, and viable cells are resuspended and counted. Thymocytes are plated (e.g., 96-well plates at a density of 2×10^5 cells/well) and a stimulating agent, such as Con A, IL-1 (e.g., IL-1α) or IL-2 is added to the well. The cells are incubated for 4 days at 37° C. On the fourth day, the cells are pulsed with tritiated thymidine and cell proliferation determined. Inventive compounds are added at the time of stimulating agent addition.
A third assay measures an ability of an inventive compound to inhibit IL-2-induced proliferation of murine thymocytes. Thymus glands are obtained from 4-6 week old mice and plated as a single cell suspension into flat bottomed wells in RPMI 1640 medium supplemented with 10% fetal calf serum. The inventive compounds are added to appropriate wells and the cells are incubated for 1-2 hrs. Concanavilin A (ConA, 0.25 mg/ml) and […] (20 ng/ml) are added and the plates are incubated for 4 days. Cell proliferation is determined as above.
FIG. 8 compares T cell immune suppression data of thirteen inventive compounds by comparing their IC50 values in a murine thymocyte stimulated by ConA and IL-2 in vitro model.

[7] = tested on: transformed cells (Ras 3T3) and normal 3T3 cells; assay: Cytotoxicity in transformed cells (Ras 3T3) versus normal 3T3 cells; format: cell-based; settings: LD50 comparison; FIG. 17
Experimental: Each inventive compound is investigated for cytotoxicity to determine appropriate doses for biological activity assays and to prevent cytotoxic reactions in in vitro assays when characterizing activity. Cells (e.g., NIH-3T3, Ras transformed 3T3 cells, malignant melanoma LD2 cells, etc.) are added to microtiter plates and drug is added about two days after plating. Cell viability is determined using a fluorescent viability stain (e.g., 2',7'-bis-(2-carboroxyethyl)-5-(and -6)-carboxyfluorescein acetoxymethyl ester, BCECF excitation 488 nm and emission 525 nm) 24, 48 or 72 hours after addition of the drug.
This example illustrates a comparison of cytotoxicity determinations for CT1534 and CT1539 in transformed cells (Ras 3T3) and in normal 3T3 cells to determine the in vitro LD50 value in both cell types and to look for differential cytotoxicity effects between the cell types.

Compound	% INHIBITION ([1]; Table 4) [%]	RELEASE-SPONT ([1]; Table 4) [%]	AVERAGE % RELEASE ([1]; Table 4) [%]	% RELEASE ([1]; Table 4)	INCORP ([1]; Table 4)	RELEASE ([1]; Table 4)	RELEASE X2 ([1]; Table 4)	TOTAL ([1]; Table 4)	% INHIBITION ([1]; Table 5) [%]	IC50 [2] [µM]	IC50 [3] [µM]	inhibition at 50 µM ([1]; Table 4) [%]	inhibition of yeast growth [4]	IC50 [5] [µM]	T cell immune suppressing activity [6]	differential cytotoxicity, transformed vs normal cells [7]
C=CCCCCCCCCCn1c(=O)c2c(ncn2COC(=O)C(C)(C)C)n(C)c1=O [CT1403, 1-(10-undecenyl)-3-methyl-7-methylpivaloylxanthine]	84.23	1.26	17.82	17.37% and 18.27%	23246 and 25691	2443 and 2872	4886 and 5744	28132 and 31435	84.23	10	< 10					
CC(C)=CCC[C@H](C)CCCn1c(=O)c2c(ncn2C)n(C)c1=O [CT2536S, 1-(4-(S)-Methyl-8-methylnon-7-enyl)-3,7-dimethylxanthine]		0.21	16.76									97.4	strongly inhibited yeast growth	30		
CC(C)=CCC[C@@H](C)CCCn1c(=O)c2c(ncn2C)n(C)c1=O [CT2536R, 1-(4-(R)-Methyl-8-methylnon-7-enyl)-3,7-dimethylxanthine]		-0.55	16.00									107	strongly inhibited yeast growth	30		
CC(C)=CCCC(C)CCn1c(=O)c2c(ncn2C)n(C)c1=O (racemic) [CT1596]													enantiomeric selectivity			
C=CCCCCCCCn1c(=O)c2c(ncn2COC(=O)C(C)(C)C)n(C)c1=O [CT1411, 1-(8-nonenyl)-3-methyl-7-methylpivaloylxanthine]	87.89	0.97	17.53	16.79% and 18.27%	24627 and 24663	2484 and 2756	4968 and 5512	29595 and 30175	87.89		< 10				potent immune suppressing activity	
C=CCCCCn1c(=O)c2c(ncn2C)n(C)c1=O [CT1539, 1-(5-hexenyl)-3,7-dimethylxanthine]		5.15	21.71									35.8		> 500		equally cytotoxic for both cell types

Reference: US5521315A, “Olefin substituted long chain compounds” (priority 1993, dated 1996)
